The results in this text go back to patent US20220324865A1 (Bayer Aktiengesellschaft, priority 2018, published 2022).

Counter-ions that a name gives are not always drawn.

The test deals with T1, human EP3 receptor (Homo sapiens, UniProt P43115).
T1 construct: expressed in transfected cells; host or cells: CHO K1 (Chinese Hamster Ovary), stably co-transfected with Galpha16 and mitochondrial clytin
T1 sequence (P43115 1-390): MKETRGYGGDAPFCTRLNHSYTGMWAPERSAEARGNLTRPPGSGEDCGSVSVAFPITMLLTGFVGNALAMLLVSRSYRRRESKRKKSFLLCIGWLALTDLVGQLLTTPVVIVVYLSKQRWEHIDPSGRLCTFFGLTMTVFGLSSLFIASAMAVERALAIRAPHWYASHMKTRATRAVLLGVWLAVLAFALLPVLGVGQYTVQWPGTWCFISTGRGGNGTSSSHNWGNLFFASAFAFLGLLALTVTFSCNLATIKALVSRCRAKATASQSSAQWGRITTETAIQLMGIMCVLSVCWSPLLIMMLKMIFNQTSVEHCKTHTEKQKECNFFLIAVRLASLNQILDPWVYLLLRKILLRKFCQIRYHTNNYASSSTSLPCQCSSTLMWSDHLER
The test is described as follows: Cellular in vitro assay for determining EP3 receptor activity (human EP3 cell line, sulprostone-stimulated calcium luminescence). The following applies: CHO cells expressing human EP3 and mitochondrial Clytin; antagonist mode, sulprostone at EC50; read-out: EP3 CHO mtCLY ANTAG IC50. The test is classed as cell-based. An outline of the steps:
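Antagonist activity was measured as inhibition of the luminescent calcium signal elicited by EC50 sulprostone, following 10 min compound pretreatment. The cell line was recombinant CHO K1 co-expressing human EP3, Gα16 and the photoprotein Clytin, reconstituted with coelenterazine.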
As to `Cc1ccc(-c2cn3nc(C(=O)NC(CO)C(F)(F)F)c(C4CC4)c3c(=O)[nH]2)cc1C(F)(F)F` (racemic) [6-248], the IC50 (commonly the concentration that inhibits the measured activity by half) came out at 2.45 nM. For the molecule `COc1ccc(C(CCO)NC(=O)c2nn3c(C)c(-c4ccc5ccccc5c4)[nH]c(=O)c3c2C)cc1` (stereo not drawn) [Example 3-37, N-[3-Hydroxy-1-(4-methoxyphenyl)propyl]-3,7-dimethyl-6-(2-naphthyl)-4-oxo-5H-pyrazolo[1,5-a]pyrazine-2-carboxamide], the IC50 was 2.4 nM. With `Cc1ccc(-c2cn3nc(C(=O)NCC(O)C(F)(F)F)c(C4CC4)c3c(=O)[nH]2)cc1Cl` (single isomer, unassigned) [6-260], the IC50 turned out to be 0.82 nM.

Take `CCN1CCC(NC(=O)c2nn3cc(-c4ccc(Cl)c(C)c4)[nH]c(=O)c3c2C2CC2)(C(F)(F)F)C1` (racemic) [6-292]: the IC50 stood at 2.05 nM. Consider `O=C(N[C@H](CCO)c1ccc(F)cc1)c1nn2cc(-c3cccc(Cl)c3)[nH]c(=O)c2c1C1CC1` [6-679], for which the IC50 was determined as 1.09 nM.

Take `Cc1ccc(-c2cn3nc(C(=O)N[C@@]4(C)CCS(=O)(=O)C4)c(C4CC4)c3c(=O)[nH]2)cc1F` (racemic) [6-376]: the IC50 came out at 5.07 nM. With `Cc1ccc(-c2cn3nc(C(=O)NC(CO)c4ccc(F)cc4)c(C(F)(F)F)c3c(=O)[nH]2)cc1Cl` (single isomer, unassigned) [6-155], the IC50 is 2.8 nM.

As for `O=C(N[C@H](CCO)c1ccc(F)cc1)c1nn2cc(-c3ccc4ccccc4c3)[nH]c(=O)c2c1Cl` [Example 1-120, 3-Chloro-N-[(1R)-1-(4-fluorophenyl)-3-hydroxypropyl]-6-(naphthalen-2-yl)-4-oxo-4,5-dihydropyrazolo[1,5-a]pyrazine-2-carboxamide], the IC50 was 0.495 nM.

Turning to `O=C(NCc1ncc(C(F)(F)F)cc1Cl)c1nn2cc(-c3ccc4ccccc4c3)[nH]c(=O)c2c1C(F)(F)F` [6-8], the IC50 is 1.05 nM. Regarding `CCN(CCO)CC(NC(=O)c1nn2cc(-c3cnc4cccc(C)c4c3)[nH]c(=O)c2c1C(C)C)c1ccccc1` (stereo not drawn) [Example 1-41, N-[2-[Ethyl(2-hydroxyethyl)amino]-1-phenylethyl]-3-isopropyl-6-(5-methyl-3-quinolyl)-4-oxo-5H-pyrazolo[1,5-a]pyrazine-2-carboxamide], the IC50 was 3.7 nM. Take `O=C(NC(CCn1cncn1)c1ccccc1)c1cc2c(=O)[nH]c(-c3ccc4c(c3)OCCO4)cn2n1` (stereo not drawn) [6-47]: the IC50 is 2.17 nM. With `C[C@@H](NC(=O)c1cc2c(=O)[nH]c(-c3ccc4ccccc4n3)cn2n1)c1ccc(F)cc1` [Example 1-105, N-[(1R)-1-(4-Fluorophenyl)ethyl]-4-oxo-6-(quinolin-2-yl)-4,5-dihydropyrazolo[1,5-a]pyrazine-2-carboxamide] the figure was 1.48 nM. Regarding `Cc1ccc(-c2cn3nc(C(=O)N[C@@H](C)C4CC4)c(C4CC4)c3c(=O)[nH]2)cc1C` [6-439], the IC50 was 1 nM. With `Cc1ccc(-c2cn3nc(C(=O)NC(C)C4CCC4)c(C4CC4)c3c(=O)[nH]2)cc1Cl` (stereo not drawn) [6-279], the IC50 is 0.49 nM. As for `Cc1cc(-c2cn3nc(C(=O)NCCC(O)C(F)(F)F)c(C4CC4)c3c(=O)[nH]2)ccc1Cl` (single isomer, unassigned) [6-311], the IC50 worked out at 1.05 nM. Take `Cc1c(C(=O)N[C@H](C)c2ccc(F)cc2)nn2cc(-c3ccc4ccccc4c3)[nH]c(=O)c12` [Example 1-45, N-[(1R)-1-(4-Fluorophenyl)ethyl]-3-methyl-6-(naphthalen-2-yl)-4-oxo-4,5-dihydropyrazolo[1,5-a]-pyrazine-2-carboxamide]: the IC50 is 2.85 nM.

In the case of `C[C@H](NC(=O)c1cc2c(=O)[nH]c(-c3ccc4c(c3)N(C)CCO4)cn2n1)c1ccc(F)cc1` [6-83], the IC50 worked out at 3.55 nM. `Cc1nn(C(C)CNC(=O)c2cc3c(=O)[nH]c(-c4ccc5ccccc5c4)cn3n2)cc1Cl` (stereo not drawn) [Example 2-18, N-[2-(4-Chlor-3-methyl-1H-pyrazol-1-yl)propyl]-6-(2-naphthyl)-4-oxo-4,5-dihydropyrazolo[1,5-a]pyrazine-2-carboxamide]: the IC50 is 2.2 nM.

Turning to `CCN(CCO)CC(NC(=O)c1cc2c(=O)[nH]c(-c3ccc4ccccc4c3)cn2n1)c1ccccc1` (stereo not drawn) [Example 1-27, N-[2-[Ethyl(2-hydroxyethyl)amino]-1-phenylethyl]-6-(2-naphthyl)-4-oxo-5H-pyrazolo[1,5-a]-pyrazine-2-carboxamide], the IC50 is 2.25 nM.

As to `COc1ccc([C@@H](C)NC(=O)c2nn3cc(-c4ccc5ccccc5c4)[nH]c(=O)c3c2C(F)(F)F)cn1` [Example 1-79, N-[(1R)-1-(6-Methoxpyridin-3-yl)ethyl]-6-(naphthalen-2-yl)-4-oxo-3-(trifluoromethyl)-4,5-dihydro-pyrazolo[1,5-a]pyrazine-2-carboxamide], the IC50 is 0.6 nM. Turning to `Cc1ccc(-c2cn3nc(C(=O)NC(CCn4cncn4)c4ccccc4)cc3c(=O)[nH]2)cc1C` (racemic) [Example 1-12, rac-6-(3,4-Dimethylphenyl)-4-oxo-N-[1-phenyl-3-(1,2,4-triazol-1-yl)propyl]-5H-pyrazolo[1,5-a]-pyrazine-2-carboxamide], the IC50 amounted to 1.67 nM.

As for `Cc1cc(-c2cn3nc(C(=O)N[C@H](CN4CC(F)C4)c4ccc(F)cc4)c(C(F)(F)F)c3c(=O)[nH]2)ccc1Cl` [6-231], the IC50 was 3.25 nM. Consider `CC(NC(=O)c1cc2c(=O)[nH]c(-c3ccc4ccccc4c3)cn2n1)c1cnc(OCC(F)(F)F)cn1` (stereo not drawn) [6-7], for which the half-maximal inhibitory concentration (IC50) stood at 7 nM. `C[C@H](NC(=O)c1nn2cc(-c3ccc(Cl)c(F)c3)[nH]c(=O)c2c1C1CC1(F)F)C1CC1` (stereo partly drawn) [6-566]: the IC50 turned out to be 2.25 nM. For `O=C(NCCc1ccccc1)c1cc2c(=O)[nH]c(-c3ccc4c(c3)OCCO4)cn2n1` [6-21], the IC50 turned out to be 5.35 nM. As for `O=C(N[C@H]1c2ccccc2C[C@@H]1O)c1cc2c(=O)[nH]c(-c3ccc4ccccc4c3)cn2n1` [6-73], the IC50 was 8.3 nM. On to `O=C(NC(c1ccc(F)cc1)C1(O)CC1)c1nn2cc(-c3ccc(Cl)c(F)c3)[nH]c(=O)c2c1C1CC1` (single isomer, unassigned) [6-98], for which the IC50 was 0.68 nM. With `CN1CC(NC(=O)c2cc3c(=O)[nH]c(-c4ccc5ccccc5c4)cn3n2)(c2ccc(F)cc2)C1` [Example 1-49, N-[3-(4-Fluorophenyl)-1-methylazetidin-3-yl]-6-(naphthalen-2-yl)-4-oxo-4,5-dihydropyrazolo-[1,5-a]pyrazine-2-carboxamide formic acid salt] the figure was 7.65 nM. In the case of `C[C@H](NC(=O)c1nn2cc(-c3ccc4ccccc4c3)[nH]c(=O)c2c1C#N)c1ccccc1` [Example 3-46, 3-Cyano-6-(naphthalen-2-yl)-4-oxo-N-[(1S)-1-phenylethyl]-4,5-dihydropyrazolo[1,5-a]pyrazine-2-carboxamide], the IC50 was found to be 3.2 nM. On to `Cc1ccc(-c2cn3nc(C(=O)NC(C)C4CCC4)c(C(F)(F)F)c3c(=O)[nH]2)cc1Cl` (single isomer, unassigned) [6-195], for which the IC50 was found to be 1.55 nM. With `CC(C)(O)[C@@H](NC(=O)c1cc2c(=O)[nH]c(-c3ccc4c(c3)CCC4)cn2n1)c1ccc(F)cc1` [Example 1-134, 6-(2,3-Dihydro-1H-inden-5-yl)-N-[(1S)-1-(4-fluorophenyl)-2-hydroxy-2-methylpropyl]-4-oxo-4,5-dihydropyrazolo[1,5-a]pyrazine-2-carboxamide] the figure was 5.75 nM; with `Cc1cc(-c2cn3nc(C(=O)NCC(N)C(F)(F)F)c(C4CC4)c3c(=O)[nH]2)ccc1C(F)(F)F` (racemic) [6-130], 29.5 nM; with `CC(C)C(CNC(=O)c1cc2c(=O)[nH]c(-c3ccc4ccccc4c3)cn2n1)n1cccn1` (stereo not drawn) [Example 2-17, N-[3-Methyl-2-(1H-pyrazol-1-yl)butyl]-6-(2-naphthyl)-4-oxo-4,5-dihydropyrazolo[1,5-a]pyrazine-2-carboxamide], 6.5 nM. With `Cc1cc(-c2cn3nc(C(=O)NC4(c5ccc(F)cc5)CN(C)C4)c(C(C)C)c3c(=O)[nH]2)ccc1Cl` [6-607] the figure was 2.95 nM; with `O=C(NCCC(F)(F)F)c1cc2c(=O)[nH]c(-c3ccc4cccc(F)c4c3)cn2n1` [6-41], 6.03 nM.

On to `Cc1ccc(-c2cn3nc(C(=O)NCC(O)C(F)(F)F)c(C(F)(F)F)c3c(=O)[nH]2)cc1Cl` (single isomer, unassigned) [6-159], for which the IC50 is 2.3 nM. With `COc1ccc(-c2cn3nc(C(=O)N[C@@H](c4ccc(F)cc4)C(C)(C)O)c(C4CC4)c3c(=O)[nH]2)cc1F` [6-587] the figure was 0.83 nM; with `COC[C@@H](NC(=O)c1nn2cc(-c3ccc4ccccc4c3)[nH]c(=O)c2c1C#N)c1ccccc1` [Example 1-60, 3-Cyano-N-[(1S)-2-methoxy-1-phenylethyl]-6-(naphthalen-2-yl)-4-oxo-4,5-dihydropyrazolo[1,5-a]-pyrazine-2-carboxamide], 2.7 nM; with `Cc1cccc2ncc(-c3cn4nc(C(=O)NC(C)c5ccc6c(c5)OCCO6)c(C(C)C)c4c(=O)[nH]3)cc12` (stereo not drawn) [Example 4-57, N-[1-(2,3-Dihydro-1,4-benzodioxin-6-yl)ethyl]-3-isopropyl-6-(5-methyl-3-quinolyl)-4-oxo-5H-pyrazolo[1,5-a]pyrazine-2-carboxamide], 1.9 nM.
